Results as given in BindingDB's records for doi:10.1021/jm500853v (University of Hawaii At Hilo, 2014).

Target: DNA gyrase A/A/B/B tetramer (Escherichia coli (strain K12), UniProt P0AES4+P0AES6)
Test: Inhibition of Escherichia coli DNA gyrase assessed as supercoiled plasmid DNA formation after 30 mins by electrophoretic analysis

IC50 [µM]	SMILES
500	C=CCOc1ccccc1/C=C/C(=O)c1ccc(O)cc1O
250	CC1(C)C2CC=C(/C=C/C(=O)c3ccc(O)cc3O)C1C2 (stereo not drawn)
500	CC[C@H](C)C(=O)c1c(O)cc(O)cc1OC/C=C(\C)CCC=C(C)C [Olympicin A]
